Results taken from EP4656640A1, “IRAK4 DEGRADER AND USE THEREOF” (Shanghai Qilu Pharmaceutical Research and Development …, priority 2023, dated 2024).
pIC50: −log10 of the molar value. Read-outs that look alike come from different tables or passages of the source.

Experiments:
IRAK4 [1] = molecular target: T1, IRAK4 (Homo sapiens, UniProt Q9NWZ3); test: Degradation of IRAK4 in SU-DHL-2 cells (flow cytometry); assay type: cell-based; design: The degradation level of IRAK4 protein in SU-DHL-2 cell line by the compounds was detected by flow cytometry; endogenous in cells; host or cells: SU-DHL-2; OCI-LY3
T1 sequence (Q9NWZ3 1-460): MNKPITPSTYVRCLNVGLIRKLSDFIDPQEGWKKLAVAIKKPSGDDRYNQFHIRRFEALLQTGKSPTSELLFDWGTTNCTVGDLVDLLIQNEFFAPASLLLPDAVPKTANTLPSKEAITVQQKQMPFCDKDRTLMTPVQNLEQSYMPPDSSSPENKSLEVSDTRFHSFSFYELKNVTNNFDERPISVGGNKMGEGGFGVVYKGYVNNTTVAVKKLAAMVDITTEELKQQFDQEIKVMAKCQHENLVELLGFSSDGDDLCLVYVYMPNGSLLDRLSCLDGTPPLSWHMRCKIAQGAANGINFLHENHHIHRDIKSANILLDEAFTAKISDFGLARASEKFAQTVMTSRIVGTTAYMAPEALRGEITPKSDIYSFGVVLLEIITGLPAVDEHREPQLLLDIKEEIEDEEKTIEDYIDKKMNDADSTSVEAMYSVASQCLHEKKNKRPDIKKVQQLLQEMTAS
Procedure: The degradation level of IRAK4 protein in SU-DHL-2 cell line by the compounds was detected by flow cytometry.
Step 2: On day 1, the cells were seeded at a density of 2 × 10^5 cells per well in 100 µL in a 96-well plate. The compounds were dissolved in DMSO to a final concentration of 10 mM, and then diluted with culture medium at a 1:5 concentration gradient to prepare 10 concentrations. The diluted solutions were added to the cells to obtain a maximum final concentration of 2 µM. Wells containing cells treated with 0.1% DMSO served as the […] The cells were incubated at 37°C in a 5% CO2 incubator for 24 hours.
Step 3: After centrifugation, the cells were washed with FACS buffer. The cells were stained for viability discrimination using the LIVE/DEAD™ Fixable Blue Dead Cell Stain Kit, and surface staining of monocytes was performed with PE Mouse Anti-Human CD14, followed by incubation at 4°C for 30 minutes.
Step 4: After centrifugation, the cells were washed with FACS buffer. Fix buffer I, equal in volume to the cultured cells, was added, and the cells were fixed at 37°C for 10 minutes.
Step 5: After centrifugation, the cells were washed with FACS buffer. 150 µL of Perm III reagent was added, and the cells were incubated at 4°C for 30 minutes to permeabilize the membranes. After centrifugation, the cells were washed with FACS buffer.
Flow cytometry analysis was performed using a flow cytometer.
The flow cytometry data were analyzed using Flowjo software. Data presentation and DC50 (half-maximal degradation concentration) calculation were performed using Prism 8.0.2 (GraphPad).

IRAK4 [2] = molecular target: T1, IRAK4; assay type: cell-based; design: endogenous in cells; host or cells: OCI-LY3; conditions: read-out: OCI-LY3 DC50
IL-6 secretion = test: Inhibition of induced IL-6 secretion in human PBMCs (CBA); assay type: cell-based; conditions: PBMC
Procedure: (§1) The effect of PROTAC small molecules on inflammatory factors in PBMCs downstream of IRAK4 induced by TLR and IL-1 was detected based on the CBA (cytometric bead array) method.
(§2) Step 2: The density of PBMCs was adjusted to 1 E6/mL, and 150 µL of PBMCs in 1640 complete medium were seeded into a 96-well plate, followed by incubation at 37°C for 1 hour.
(§3) Step 3: 50 µL of serially diluted small molecule (working concentration: 10000 nM, 1:3 dilution) drugs were inoculated into the plate in a 37°C incubator for 8 hours.
(§4) Step 4: 10 µL of stimulants were added respectively, with final concentrations of 100 ng/mL for LPS, 1 µg/mL for R848, and 100 ng/mL for IL-1β.
(§5) Step 5: CBA assay. The concentrations of IL-6 and TNF-α in the cell culture supernatant were determined using Hu IL-6 CBA Flex Set A7 and Hu TNF- CBA Flex Set D9.
(§6) Step 6: Standard samples were prepared: 2500 pg/mL, 1250 pg/mL,...0. A 1:2 serial dilution was performed to obtain 10 concentrations.
(§7) Step 7: The mixed capture beads were resuspended in capture bead diluent (1:50), and cell culture supernatant (50 µL) was added, followed by incubation at room temperature for 10 minutes.
(§8) Step 8: The detection reagent prepared with detection diluent was added, and the mixture was incubated in the dark at room temperature for 3 hours. At the end of incubation, the samples were washed once with wash buffer and resuspended for detection.
(§9) The concentrations of IL-6 and TNFα were calculated using the standard curve method. Data presentation and IC50 calculation were performed using Prism 8.0.2.

[3] = Mouse pharmacokinetics, oral (Experiment 1); assay type: in vivo, C57BL/6 mice; conditions: mice, PO 100 mg/kg, fasted overnight, plasma
Procedure: C57BL/6 mice were used as test animals to study the pharmacokinetic behavior of the compounds of the present disclosure in mouse plasma after oral administration at a dose of 100 mg/kg.
C57BL/6, male, transferred from the animal repository of the laboratory institution (999M-018).
Three male C57BL/6 mice were fasted overnight (10-14 hours) with free access to water one day before administration. The mice were fed 4 hours after administration. The dose for PO administration was 100 mg/kg, with an administration volume of 20 mL/kg.
After administration, blood samples (0.03 mL) were collected from the mice via venipuncture at 0.083, 0.25, 0.5, 1, 2, 4, 8, and 24 hours. The samples were placed in EDTA-K2 tubes and centrifuged at 6800 rpm for 5 minutes at 2-8°C. The plasma was separated and stored at -80°C.
• 1) 10 µL of plasma sample was added to 200 µL of methanol for precipitation. After mixing, the mixture was centrifuged at 18000 g for 10 minutes. • 2) The processed supernatant solution was taken for LC/MS/MS analysis to determine the concentration of the test compound.
• Liquid phase conditions: Shimadzu LC-30AD pump • Mass spectrometry conditions: AB Sciex API 5500 mass spectrometer • Chromatographic column: Phenomenex Kinetex 2.6 µm C18 50 3.0 mm • Mobile phase: Solution A was 0.1% formic acid in water, and solution B was 0.1% formic acid in acetonitrile • Flow rate: 0.6 mL/min • Elution time: Gradient elution for 0-1.6 minutes.
The main pharmacokinetic parameters were calculated using WinNonlin 8.0.

[4] = Dog pharmacokinetics, oral gavage (Experiment 3); assay type: in vivo; conditions: Beagle dogs, oral gavage 2.5 mg/kg, plasma
Procedure: Healthy Beagle dogs, male, weighing about 8-10 kg, 3 animals per group.
The animals were not fasted and had free access to water.
Venous blood (0.5-0.8 mL) was collected at 15 minutes, 30 minutes, 1 hour, 2 hours, 4 hours, 8 hours, and 24 hours after oral gavage administration, placed in K2EDTA tubes, and centrifuged at 4°C to separate plasma. The concentration of the compound in plasma was determined by liquid chromatography-tandem mass spectrometry.
The main pharmacokinetic parameters were calculated using WinNonlin. […] Table 8. Pharmacokinetic parameters of some compounds of the present disclosure administered orally to dogs

TNFα secretion = test: Inhibition of induced TNFα secretion in human PBMCs (CBA); assay type: cell-based; conditions: PBMC
Procedure: as §1, §2, §3, §4, §5, §6, §7, §8, §9

[5] = SU-DHL-2 cells, 24 hours incubation; read-out: SU-DHL-2 DC50
[6] = read-out: SU-DHL-2 DC50; SU-DHL-2 cells, 24 hours incubation

Compound: Cn1c(=O)n(C2CCC(=O)NC2=O)c2cccc(C#CCCCCN3CCC4(CC3)CC(n3cc(NC(=O)c5cnn6ccc(N7C[C@H]8C[C@@H]7CO8)nc56)c(C(F)F)n3)C4)c21 (stereo partly shown) [Example 15]
- DC50 (IRAK4 [1]; [5]): 5 nM
- DC50 (IRAK4 [2]; OCI-LY3 cells): 1.5 nM

Compound: Cn1c(=O)n(C2CCC(=O)NC2=O)c2cccc(C#CCN3CCC(CN4CCC5(CC4)CC(n4cc(NC(=O)c6cnn7ccc(N8C[C@H]9C[C@@H]8CO9)nc67)c(C(F)F)n4)C5)CC3)c21 (stereo partly shown) [Example 3]
- DC50 (IRAK4 [1]; read-out: SU-DHL-2 DC50): 11 nM
- DC50 (IRAK4 [2]): 8 nM

Compound: Cn1c(=O)n(C2CCC(=O)NC2=O)c2cccc(C#CCOCCN3CCC4(CC3)CC(n3cc(NC(=O)c5cnn6ccc(N7C[C@H]8C[C@@H]7CO8)nc56)c(C(F)F)n3)C4)c21 (stereo partly shown) [Example 1]
- DC50 (IRAK4 [1]; [5]): 1.4 nM
- DC50 (IRAK4 [2]; OCI-LY3 cells): 0.4 nM

Compound: Cn1c(=O)n(C2CCC(=O)NC2=O)c2cccc(C#CCO[C@H]3C[C@H](CN4CCC5(CC4)CC(n4cc(NC(=O)c6cnn7ccc(N8C[C@H]9C[C@@H]8CO9)nc67)c(C(F)F)n4)C5)C3)c21 (stereo partly shown) [Example 29]
- DC50 (IRAK4 [1]; [6]): 3 nM
- DC50 (IRAK4 [2]; OCI-LY3 cells): 1 nM

Compound: Cn1c(=O)n(C2CCC(=O)NC2=O)c2cccc(C#CCO[C@H]3C[C@@H](CN4CCC5(CC4)CC(n4cc(NC(=O)c6cnn7ccc(N8C[C@H]9C[C@@H]8CO9)nc67)c(C(F)F)n4)C5)C3)c21 (stereo partly shown) [Example 30]
- DC50 (IRAK4 [1]; [6]): 3 nM
- DC50 (IRAK4 [2]; OCI-LY3 cells): 1 nM

Compound: Cn1c(=O)n(C2CCC(=O)NC2=O)c2cccc(C#CCOCCC(=O)N3CCC4(CC3)CC(n3cc(NC(=O)c5cnn6ccc(N7C[C@H]8C[C@@H]7CO8)nc56)c(C(F)F)n3)C4)c21 (stereo partly shown) [Example 8]
- DC50 (IRAK4 [1]; [6]): 4 nM
- DC50 (IRAK4 [2]; OCI-LY3 cells): 2 nM

Compound: Cn1c(=O)n(C2CCC(=O)NC2=O)c2cccc(C#CCCCN3CCC4(CC3)CC(n3cc(NC(=O)c5cnn6ccc(N7C[C@H]8C[C@@H]7CO8)nc56)c(C(F)F)n3)C4)c21 (stereo partly shown) [Example 17]
- DC50 (IRAK4 [1]; [5]): 1 nM
- DC50 (IRAK4 [2]; OCI-LY3 cells): 1 nM

Compound: Cn1c(=O)n(C2CCC(=O)NC2=O)c2cccc(C#CCO[C@H]3CC[C@H](CN4CCC5(CC4)CC(n4cc(NC(=O)c6cnn7ccc(N8C[C@H]9C[C@@H]8CO9)nc67)c(C(F)F)n4)C5)CC3)c21 (stereo partly shown) [Example 31]
- pIC50 (IL-6 secretion; IL-1β 100 ng/mL, read-out: IC50 of compounds against induced secretion, IL-6, IL-1β): 8.03
- pIC50 (IL-6 secretion; LPS 100 ng/mL, read-out: IC50 of compounds against induced secretion, IL-6, LPS): 8.34
- pIC50 (IL-6 secretion; R848 1 µg/mL, read-out: IC50 of compounds against induced secretion, IL-6, R848): 9.05
- AUC(0-inf) [3]: 5460 ng·h/mL
- AUC(0-t) at 24 h [3]: 4890 ng·h/mL
- Cmax [3]: 364 ng/mL
- MRT inf [3]: 10.4 h
- Tmax [3]: 3.3 h
- half-life [3]: 7.3 h
- AUC(0-t) at 24 h [4]: 198 ng·h/mL
- Cmax [4]: 15 ng/mL
- MRT inf [4]: 12 h
- half-life [4]: 8 h
- pIC50 (TNFα secretion; IL-1β 100 ng/mL, read-out: IC50, TNFα secretion induced by IL-1β): 8.68
- pIC50 (TNFα secretion; LPS 100 ng/mL, read-out: IC50, TNFα secretion induced by LPS): 8.11
- pIC50 (TNFα secretion; R848 1 µg/mL, read-out: IC50, TNFα secretion induced by R848): 8.09

Compound: Cn1c(=O)n(C2CCC(=O)NC2=O)c2cccc(C#CCCC(=O)N3CCC4(CC3)CC(n3cc(NC(=O)c5cnn6ccc(N7C[C@H]8C[C@@H]7CO8)nc56)c(C(F)F)n3)C4)c21 (stereo partly shown) [Example 24]
- DC50 (IRAK4 [1]; [5]): 4 nM
- DC50 (IRAK4 [2]; OCI-LY3 cells): 3 nM

Compound: Cn1c(=O)n(C2CCC(=O)NC2=O)c2cccc(C#CCOCC3CC(N4CCC5(CC4)CC(n4cc(NC(=O)c6cnn7ccc(N8C[C@H]9C[C@@H]8CO9)nc67)c(C(F)F)n4)C5)C3)c21 (stereo partly shown) [Example 9]
- DC50 (IRAK4 [1]; [5]): 2.7 nM
- DC50 (IRAK4 [2]; OCI-LY3 cells): 2.3 nM

Compound: Cn1c(=O)n(C2CCC(=O)NC2=O)c2cccc(C#CCOCC(C)(C)C(=O)N3CCC4(CC3)CC(n3cc(NC(=O)c5cnn6ccc(N7C[C@H]8C[C@@H]7CO8)nc56)c(C(F)F)n3)C4)c21 (stereo partly shown) [Example 5]
- DC50 (IRAK4 [1]; [6]): 27 nM
- DC50 (IRAK4 [2]; OCI-LY3 cells): 28 nM

Compound: Cn1c(=O)n(C2CCC(=O)NC2=O)c2cccc(C#CCOCCCCN3CCC4(CC3)CC(n3cc(NC(=O)c5cnn6ccc(N7C[C@H]8C[C@@H]7CO8)nc56)c(C(F)F)n3)C4)c21 (stereo partly shown) [Example 4]
- DC50 (IRAK4 [1]; read-out: SU-DHL-2 DC50): 8 nM
- DC50 (IRAK4 [2]): 5 nM

Compound: Cn1c(=O)n(C2CCC(=O)NC2=O)c2cccc(C#CCOCCCN3CCC4(CC3)CC(n3cc(NC(=O)c5cnn6ccc(N7C[C@H]8C[C@@H]7CO8)nc56)c(C(F)F)n3)C4)c21 (stereo partly shown) [Example 2]
- DC50 (IRAK4 [1]; read-out: SU-DHL-2 DC50): 1.1 nM
- DC50 (IRAK4 [2]): 0.4 nM
